Active and inactive are the calls of the source. The rule behind the calls is not given here.
Columns and labels:
[1] = test system: Radical scavenging activity; test: Effect on CumOOH-induced oxidative damage of herring sperm DNA assessed as reduction in 8-OHdG level; type: functional; parameters: scale not given: the % may be the effect or the level left; settings: Clupea
[2] = test system: Radical scavenging activity; test: Effect on glutathione/ferric ion-induced oxidative damage of herring sperm DNA assessed as reduction in 8-OHdG level; type: functional; parameters: scale not given: the % may be the effect or the level left; settings: Clupea

Molecule | Activity [1] | Activity [2]
COc1ccc(C2CSc3cc(O)ccc3O2)cc1 (configuration not stated) | inactive | 
COc1ccc(C2CSc3ccc(O)cc3O2)cc1 (configuration not stated) | inactive | Active
COc1cc(OC)c2c(c1)OC(c1ccc(O)c(O)c1)CS2 (configuration not stated) | 30% | 
Oc1cc(O)c2c(c1)OC(c1ccc(O)c(O)c1)C(O)C2 (racemic) | 32% | 36%
COc1ccc(C2CSc3c(O)cc(O)cc3O2)cc1 (configuration not stated) | inactive | Active
Oc1cc(O)c2c(c1)OC(c1ccc(O)c(O)c1)CS2 (configuration not stated) | 30% | 82%
VITAMIN E | 61% | 33%

Reference: ChEMBL document CHEMBL1146934, “Polyhydroxylated 4-thiaflavans as multipotent antioxidants: protective effect on oxidative DNA damage in vitro” (Bioorg Med Chem Lett, 2006)
